The values that follow come from ChEMBL document CHEMBL6120935, “Multifunctional Molecular Hybrids Photoreleasing Nitric Oxide: Advantages, Pitfalls, and Opportunities” (J Med Chem, 2024).

The series in a line: n-Octanol/PBS partition coefficient, logP of compound at pH 7.4 incubated for 4 hrs under shaking condition by UV spectrophotometric analysis. The class given is physicochemical.
On to `O=C(CCCCCCCC[P+](c1ccccc1)(c1ccccc1)c1ccccc1)NCCCNc1ccc([N+](=O)[O-])c(C(F)(F)F)c1`, for which the logD at 4 h amounted to 2.78.

`O=C(CCCCC[P+](c1ccccc1)(c1ccccc1)c1ccccc1)NCCCNc1ccc([N+](=O)[O-])c(C(F)(F)F)c1` had a logD at 4 h of 2.39.

The compound `CC(=O)NCCCNc1ccc([N+](=O)[O-])c(C(F)(F)F)c1` yielded a logD at 4 h of 2.03.

On to `O=C(CCCCCCCCC[P+](c1ccccc1)(c1ccccc1)c1ccccc1)NCCCNc1ccc([N+](=O)[O-])c(C(F)(F)F)c1`, for which the logD at 4 h amounted to 3.24.

In the case of `O=C(CC[P+](c1ccccc1)(c1ccccc1)c1ccccc1)NCCCNc1ccc([N+](=O)[O-])c(C(F)(F)F)c1`, the logD at 4 h is 1.99.
